These results are taken from BindingDB's records for doi:10.1021/jm00089a010 (Abbott Laboratories, 1992).

One may read the pIC50 as the negative decadic logarithm of the IC50, by convention in mol/L. High values mean a small IC50, low ones a large IC50.

Each structure is given as a SMILES string. pIC50: −log10 of the molar value. Where a SMILES comes first, the peptide text is derived from it. The star is where a group is joined. Propanoyl(3-(4-F-phenyl)) = O=C(CCc1ccc(F)cc1)*; Hydrocinnamoyl(4-Me) = Cc1ccc(CCC(=O)*)cc1; X15 = O=C(/C=C\c1ccc(C(F)(F)F)cc1)*; X17 = COc1ccc(/C=C\C(=O)*)c(OC)c1; X30 = O=C(CCc1ccc(C(F)(F)F)cc1)*; X14 = O=C(c1cc2cc(O)ccc2[nH]1)*; X2 = O=C(c1cc2cc(Cl)ccc2[nH]1)*; X8 = COc1ccc2[nH]c(C(=O)*)cc2c1; X12 = O=C(c1cnc2cccc(O)c2c1)*; X11 = O=C(/C=C\c1ccc(O)cc1)*; X16 = O=C(/C=C\c1ccccc1O)*; X27 = O=C(Cc1ccc(O)cc1)*; Boc = CC(C)(C)OC(=O)*

The target of this experiment is Gastrin/cholecystokinin type B receptor (Cavia porcellus). The experiment can be described thus: Inhibition of specific binding of [125I]BH-CCK-8 in guinea pig cortex.

`CC(C)(C)OC(=O)N[C@@H](Cc1c[nH]c2ccccc12)C(=O)N[C@@H](CCCCNC(=O)c1cc2cc(O)ccc2[nH]1)C(=O)N[C@@H](CC(=O)O)C(=O)N[C@@H](Cc1ccccc1)C(N)=O` (Boc-WK(X14)DF-NH2) showed a pIC50 of 6.08. As for `CC(C)(C)OC(=O)N[C@@H](Cc1c[nH]c2ccccc12)C(=O)N[C@@H](CCCCNC(=O)/C=C\c1ccccc1O)C(=O)N[C@@H](CC(=O)O)C(=O)N[C@@H](Cc1ccccc1)C(N)=O` [3-{2-[2-tert-Butoxycarbonylamino-3-(1H-indol-3-yl)-propionylamino]-6-[3-(2-hydroxy-phenyl)-acryloylamino]-hexanoylamino}-N-(1-carbamoyl-2-phenyl-ethyl)-succinamic acid; hydrate] (Boc-WK(X16)DF-NH2), the pIC50 was 6.68. Compared with the last compound, the pIC50 is 0.60 log units higher.

With `COc1ccc(/C=C\C(=O)NCCCC[C@H](NC(=O)[C@H](Cc2c[nH]c3ccccc23)NC(=O)OC(C)(C)C)C(=O)N[C@@H](CC(=O)O)C(=O)N[C@@H](Cc2ccccc2)C(N)=O)c(OC)c1` [3-{2-[2-tert-Butoxycarbonylamino-3-(1H-indol-3-yl)-propionylamino]-6-[3-(2,4-dimethoxy-phenyl)-acryloylamino]-hexanoylamino}-N-(1-carbamoyl-2-phenyl-ethyl)-succinamic acid; hydrate] (Boc-WK(X17)DF-NH2), the pIC50 is 5.52. With `CC(C)(C)OC(=O)N[C@@H](Cc1c[nH]c2ccccc12)C(=O)N[C@@H](CCCCNC(=O)c1cc2cc(Cl)ccc2[nH]1)C(=O)N[C@@H](CC(=O)O)C(=O)N[C@@H](Cc1ccccc1)C(N)=O` (Boc-WK(X2)DF-NH2) the figure was 5.28; with `CC(C)(C)OC(=O)N[C@@H](Cc1c[nH]c2ccccc12)C(=O)N[C@@H](CCCCNC(=O)c1cnc2cccc(O)c2c1)C(=O)N[C@@H](CC(=O)O)C(=O)N[C@@H](Cc1ccccc1)C(N)=O` (Boc-WK(X12)DF-NH2), 6.17. Next, `CC(C)(C)OC(=O)N[C@@H](Cc1c[nH]c2ccccc12)C(=O)N[C@@H](CCCCNC(=O)Cc1ccc(O)cc1)C(=O)N[C@@H](CC(=O)O)C(=O)N[C@@H](Cc1ccccc1)C(N)=O` [3-{2-[2-tert-Butoxycarbonylamino-3-(1H-indol-3-yl)-propionylamino]-6-[2-(4-hydroxy-phenyl)-acetylamino]-hexanoylamino}-N-(1-carbamoyl-2-phenyl-ethyl)-succinamic acid; hydrate] (Boc-WK(X27)DF-NH2): 6.32; `CC(C)(C)OC(=O)N[C@@H](Cc1c[nH]c2ccccc12)C(=O)N[C@@H](CCCCNC(=O)/C=C\c1ccc(O)cc1)C(=O)N[C@@H](CC(=O)O)C(=O)N[C@@H](Cc1ccccc1)C(N)=O` [3-{2-[2-tert-Butoxycarbonylamino-3-(1H-indol-3-yl)-propionylamino]-6-[3-(4-hydroxy-phenyl)-acryloylamino]-hexanoylamino}-N-(1-carbamoyl-2-phenyl-ethyl)-succinamic acid] (Boc-WK(X11)DF-NH2): 6.14.

As to `CC(C)(C)OC(=O)N[C@@H](Cc1c[nH]c2ccccc12)C(=O)N[C@@H](CCCCNC(=O)/C=C\c1ccc(C(F)(F)F)cc1)C(=O)N[C@@H](CC(=O)O)C(=O)N[C@@H](Cc1ccccc1)C(N)=O` [3-{2-[2-tert-Butoxycarbonylamino-3-(1H-indol-3-yl)-propionylamino]-6-[3-(4-trifluoromethyl-phenyl)-acryloylamino]-hexanoylamino}-N-(1-carbamoyl-2-phenyl-ethyl)-succinamic acid; hydrate] (Boc-WK(X15)DF-NH2), the pIC50 is 5.28. Against the preceding compound, the pIC50 is 0.86 log units lower. Next, `CC(C)(C)OC(=O)N[C@@H](Cc1c[nH]c2ccccc12)C(=O)N[C@@H](CCCCNC(=O)CCc1ccc(C(F)(F)F)cc1)C(=O)N[C@@H](CC(=O)O)C(=O)N[C@@H](Cc1ccccc1)C(N)=O` [3-{2-[2-tert-Butoxycarbonylamino-3-(1H-indol-3-yl)-propionylamino]-6-[3-(4-trifluoromethyl-phenyl)-propionylamino]-hexanoylamino}-N-(1-carbamoyl-2-phenyl-ethyl)-succinamic acid; hydrate] (Boc-WK(X30)DF-NH2): 4.72; `COc1ccc2[nH]c(C(=O)NCCCC[C@H](NC(=O)[C@H](Cc3c[nH]c4ccccc34)NC(=O)OC(C)(C)C)C(=O)N[C@@H](CC(=O)O)C(=O)N[C@@H](Cc3ccccc3)C(N)=O)cc2c1` (Boc-WK(X8)DF-NH2): 5.52; `Cc1ccc(CCC(=O)NCCCC[C@H](NC(=O)[C@H](Cc2c[nH]c3ccccc23)NC(=O)OC(C)(C)C)C(=O)N[C@@H](CC(=O)O)C(=O)N[C@@H](Cc2ccccc2)C(N)=O)cc1` [3-[2-[2-tert-Butoxycarbonylamino-3-(1H-indol-3-yl)-propionylamino]-6-(3-p-tolyl-propionylamino)-hexanoylamino]-N-(1-carbamoyl-2-phenyl-ethyl)-succinamic acid] (Boc-WK(Hydrocinnamoyl(4-Me))DF-NH2): 5.00. Compound `CC(C)(C)OC(=O)N[C@@H](Cc1c[nH]c2ccccc12)C(=O)N[C@@H](CCCCNC(=O)CCc1ccc(F)cc1)C(=O)N[C@@H](CC(=O)O)C(=O)N[C@@H](Cc1ccccc1)C(N)=O` [3-{2-[2-tert-Butoxycarbonylamino-3-(1H-indol-3-yl)-propionylamino]-6-[3-(4-fluoro-phenyl)-propionylamino]-hexanoylamino}-N-(1-carbamoyl-2-phenyl-ethyl)-succinamic acid; hydrate] (Boc-WK(Propanoyl(3-(4-F-phenyl)))DF-NH2) showed a pIC50 of 5.00.
